The record followed here is patent EP4741439A1, “BLOCK COPOLYMER CONTAINING REPEATING UNIT OF POLY([R, S]BETA-HYDROXYBUTYRATE), NANOPARTICLES FORMED FROM SAID COPOLYMER, AND PRODUCTION AND USE OF THOSE” (University of Tsukuba, priority 2023, dated 2025).

Data set [1] concerns cisplatin-induced acute kidney injury (AKI). Kind of data set: Protective effect on acute kidney injury by subcutaneous injection. Conditions: subcutaneous injection about 250 mg in terms of BHB/kg, 6 hours prior to cisplatin 20 mg/kg; 72 hours after challenge. Type of data set: in vivo, C57BL/6J male mice. How it is done: C57BL/6J male mice (8 weeks old) were divided into four groups for use in different treatments. Acute kidney injury was induced by intraperitoneal injection of cisplatin (20 mg/kg). A mouse was pretreated with subcutaneous injection of physiological saline (n = 11) or sodium β-hydroxybutyrate (at a dose in terms of BHB/kg of about 250 mg, n = 1) or Nano^BHB (at a dose in terms of BHB/kg of about 250 mg, n = 10) 6 hours prior to exposure to cisplatin. The healthy group (n = 8) was injected with physiological saline instead of cisplatin. 72 hours after the cisplatin challenge, the mouse was sacrificed, and blood plasma and kidney were collected. Renal function was assessed by measuring the levels of blood urea nitrogen (BUN), creatinine (CRE), aspartate transaminase (AST). […] In the figure, (A) represents a scheme of animal experiment, (B) is a graphical representation of data on blood urea nitrogen in plasma of an AKI mouse 3 days after injection of cisplatin, (C) is a graphical representation of data on creatinine, (D) is a graphical representation of data on aspartate transaminase, (E) is a presentation image of periodic acid Schiff (PAS) staining at 20 fold magnification of kidney tissue, and (F) is a graph summarizing data of the result of quantitative measurement of a damaged region of the kidney from a stained image. […]

For data set [2], the system named is Bovine aortic endothelial cells (BAEC). Kind of data set: Cytotoxicity, WST cell viability. The class given is cell-based. The note with it: 24 hours, BHB content from 0 to 25.4 mM. On the procedure: Bovine aortic endothelial cells (BAEC) (available from RIKEN (RIKEN, Tsukuba, Japan)) were pre-seeded on a 96 well (well) plate and incubated with either Nano^BHB or BHB at different concentrations with a BHB content of from 0 to 25.4 mM in a medium. After 24 hours, the medium was discarded, followed by addition of 100 µL of medium containing 10 µL of WST agent and incubation for 4 hours. In a final process, cell viability was measured based on a ratio of optical signals of a subject well and a water treatment group well at a wavelength of 450 nm in each well.

With `CC(O)CC(=O)[O-].[Na+]` (stereo not drawn) [sodium β-hydroxybutyrate], in data set [1], the “Effect against cisplatin-induced acute kidney injury (BUN, CRE, AST, PAS staining)” value is given as “no decrease in renal function is observed”. In data set [2], the “survival rate and morphology of the BAEC cells” value was “do not affect”.
